This note sets out measurements from patent publication US20030096850A1, “Treating infections by administration of oxazolidinones” (priority 2001, published 2003).

Assay [1] in a line: Human who has acne treated with an Oxazolidinone ointment. Type of assay: in vivo. The settings on record: person, ointment 30 mg/ml twice daily on skin.
Assay [2] in a line: Human who has an ear infection (otitis media) treated with Oxazolidinone solution. Type of assay: in vivo. The settings on record: child, ten drops of 10 mg/ml solution into the ear twice daily, before 10 days. The protocol: Ten drops of a solution containing 10 mg/ml of (S)-N-[[3-[3-fluoro-4-(4-morpholinyl)phenyl]-2-oxo-5-oxazolidinyl]methyl]acetamide is dropped into the ear twice daily for ten days with an eye dropper and is immediately followed by closing the outer ear canal with cotton.

For assay [3], the system named is Staphylococcal aureus. Description: Human treated with Oxazolidinone cream or ointment prior to surgery. Type of assay: in vivo. The settings on record: cream or ointment 10-30 mg/ml, evening prior to and morning of surgery. The protocol: (§1) A 75 kilo […] is being prepared for surgery; the types of surgeries include open-heart surgery, joint replacement, back surgery, or any type of invasive surgery. A cream or ointment preparation of 10-30 mg/ml (S)-N-[[3-[3-fluoro-4-(4-morpholinyl)phenyl]-2-oxo-5-oxazolidinyl]methyl]acetamide is liberally spread by a nurse wearing gloves upon the intended site of the incision and an area of 8 inches around the margins of the intended incision site the evening prior to surgery and the first thing in the morning of the surgery. The area of application is kept free of clothing until the cream or ointment is absorbed.

Assay [4] has as its system Staphylococcal epidermidis. Described as above. The settings on record: cream or ointment 10-30 mg/ml, evening prior to and morning of surgery. It counts as in vivo. The protocol:
as §1

Assay [5] in a line: Treatment of diabetic foot with cream or ointment. It counts as in vivo, human. The settings on record: cream or ointment 10-30 mg/ml three times daily for 10-14 days. The protocol:
A 70 kilo […] with a history of diabetes and infected foot ulcerations, also known as diabetic foot, is treated with a cream or ointment preparation of 10-30 mg/ml (S)-N-[[3-[3-fluoro-4-(4-morpholinyl)phenyl]-2-oxo-5-oxazolidinyl]methyl]acetamide. The cream or ointment is liberally spread over the exposed surface of the ulcerations and adjacent whole skin three times daily for 10-14 days.

On to `CC(=O)NC[C@H]1CN(c2ccc(N3CCN(C(=O)CO)CC3)c(F)c2)C(=O)O1` [Example 1, (S)-N-[[3-[3-Fluoro-4-[4-(hydroxyacetyl)-1-piperazinyl]-phenyl]-2-oxo-5-oxazolidinyl]methyl]acetamide], for which the “reddened and swollen pustules after administration” value in assay [1] is on record as “greatly reduced”.

For the compound `CC(=O)NC[C@H]1CN(c2ccc(N3CCOCC3)c(F)c2)C(=O)O1` [Example 2, (S)-N-[[3-[3-Fluoro-4-(4-morpholinyl)phenyl]-2-oxo-5-oxazolidinyl]methyl]acetamide], the “fever and ear pain” value in assay [2] was “the fever is down and the pain is gone”. In assay [3], the “skin commensal pathogen Staphylococcal aureus throughout the full thickness of the skin at the incision site” value is given as “killed or are prevented from growing”. Moreover, the “skin commensal pathogen Staphylococcal epidermidis throughout the full thickness of the skin at the incision site” value in assay [4] is on record as “killed or are prevented from growing”. In assay [5], the “tissue destruction and repair in the ulcerated area” value is “tissue destruction in the ulcerated area has visibly ceased and tissue repair has begun”.
